Measured values: BindingDB's records for doi:10.1016/S1074-5521(99)80072-6 (Ligand Pharmaceuticals Inc, 1999)

How the values were obtained:
[1] = target: T1, Vitamin D-binding protein (Homo sapiens, UniProt V9HWI6); assay: DBP Binding Assay; conditions: pH 7.4; 4 °C
T1 sequence (V9HWI6 whole entry): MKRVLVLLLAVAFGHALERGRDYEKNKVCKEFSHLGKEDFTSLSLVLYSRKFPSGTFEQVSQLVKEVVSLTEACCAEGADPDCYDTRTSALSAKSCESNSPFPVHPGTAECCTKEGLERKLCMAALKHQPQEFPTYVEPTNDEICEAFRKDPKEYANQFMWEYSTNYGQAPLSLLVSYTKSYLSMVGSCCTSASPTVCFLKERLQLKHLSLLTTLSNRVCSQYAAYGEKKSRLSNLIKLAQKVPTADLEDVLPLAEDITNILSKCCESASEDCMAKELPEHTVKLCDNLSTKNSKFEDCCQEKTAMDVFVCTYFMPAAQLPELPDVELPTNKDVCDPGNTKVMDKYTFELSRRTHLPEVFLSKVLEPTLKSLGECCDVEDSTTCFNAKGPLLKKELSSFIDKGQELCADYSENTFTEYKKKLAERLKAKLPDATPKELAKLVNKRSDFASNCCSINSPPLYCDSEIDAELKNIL
From the text: (§1) DBP competition binding assay were done using human serum (Scantibodies) or rat serum (Gibco-BRL).

Vitamin D3 receptor = target: T2, Vitamin D3 receptor (Homo sapiens, UniProt P11473); assay: VDR Ligand-Binding Assay; conditions: pH 7.5; 4 °C
T2 sequence (P11473 whole entry): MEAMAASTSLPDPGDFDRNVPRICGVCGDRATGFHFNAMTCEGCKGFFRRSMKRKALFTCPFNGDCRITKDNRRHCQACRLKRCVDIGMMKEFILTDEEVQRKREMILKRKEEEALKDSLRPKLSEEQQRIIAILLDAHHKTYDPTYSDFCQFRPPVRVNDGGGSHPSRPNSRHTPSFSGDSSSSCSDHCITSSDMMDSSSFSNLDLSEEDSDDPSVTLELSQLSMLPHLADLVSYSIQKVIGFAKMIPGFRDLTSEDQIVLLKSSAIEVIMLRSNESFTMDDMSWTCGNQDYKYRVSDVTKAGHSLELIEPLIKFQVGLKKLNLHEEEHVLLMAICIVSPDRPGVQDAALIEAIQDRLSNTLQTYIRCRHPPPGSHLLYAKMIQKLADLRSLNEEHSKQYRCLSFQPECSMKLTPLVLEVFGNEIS
From the text: VDR in vitro ligand-binding assay using human VDR constructed into a yeast expression plasmid.

[2] = target: T3, Vitamin D-binding protein (Rattus norvegicus, UniProt P04276); assay: DBP Binding Assay; conditions: pH 7.4; 4 °C
T3 sequence (P04276 whole entry): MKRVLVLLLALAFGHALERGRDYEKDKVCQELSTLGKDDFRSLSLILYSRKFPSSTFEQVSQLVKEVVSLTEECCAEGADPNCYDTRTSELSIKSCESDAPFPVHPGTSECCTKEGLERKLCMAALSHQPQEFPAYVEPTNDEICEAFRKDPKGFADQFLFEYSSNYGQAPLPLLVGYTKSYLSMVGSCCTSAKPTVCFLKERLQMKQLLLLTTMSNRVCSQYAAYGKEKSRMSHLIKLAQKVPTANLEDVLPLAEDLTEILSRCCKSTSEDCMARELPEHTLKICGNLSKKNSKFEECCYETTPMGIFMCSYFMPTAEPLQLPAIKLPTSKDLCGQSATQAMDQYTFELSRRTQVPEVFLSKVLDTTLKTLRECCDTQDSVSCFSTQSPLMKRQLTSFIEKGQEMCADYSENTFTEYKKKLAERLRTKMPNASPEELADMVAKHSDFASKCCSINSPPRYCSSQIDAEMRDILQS
From the text: as §1

| IC50 [1] [µM] | Ki (Vitamin D3 receptor) [µM] | IC50 [2] [µM] | SMILES |
| --- | --- | --- | --- |
| > 1 | > 1 | – | Cc1cc(C2(c3ccc(OCC(=O)C(C)(C)C)c(C)c3)CCCCC2)ccc1OCC(=O)C(C)(C)C [LG190119] |
| > 1 | – | – | CCC(CC)(c1ccc(OCC(=O)C(C)(C)C)c(C)c1)c1ccc(OCC(O)CO)c(C)c1 (configuration not stated) [LG190178] |
| 0.2 | 0.0005 | 0.04 | C=C1/C(=C\C=C\C2CCC3(C)C(CCC3C(C)CCCC(C)(C)O)C2)C[C@@H](C)C[C@@H]1C (some centres not stated) [1,25(OH)2D3] |

The next lines start with the compound.

| SMILES | IC50 [1] [µM] | Ki (Vitamin D3 receptor) [µM] | IC50 [2] [µM] |
| --- | --- | --- | --- |
| CCC(CC)(c1ccc(OCC(=O)C(C)(C)C)c(C)c1)c1ccc(OCC2CO2)c(C)c1 (configuration not stated) [LG190176] | > 1 | > 1 | – |
| CC(C)(C)C(=O)COc1ccc(C(C)(C)c2ccc(OCC(=O)C(C)(C)C)c(Cl)c2)cc1Cl [LG190090] | > 1 | > 1 | – |
| CCC(CC)(c1ccc(OCC(=O)C(C)(C)C)c(C)c1)c1ccc(OCC(=O)C(C)(C)C)c(C)c1 [LG190155] | > 1 | > 1 | – |
